These results are taken from US5759565A, “Galenic compositions comprising calcitonin and their use” (Novartis Corporation, priority 1982, dated 1998).

The test system of series [1] is ciliary beating frequency of rat trachea. Description: Ciliary beating frequency, microphoto-oscillographic method of L. Chevance et al. Format: cell-based. Conditions: at 0.6%; within 20 minutes. The method, then:
70, […] (1970). These are just some of the disadvantageous effects that can be encountered.
Moreover the compositions are well tolerated as indicated in standard tests, e.g. in that less than 50% inhibition of ciliary beating frequency is observed up to 20 minutes after administration, according to the microphoto-oscillographic method of L. Chevance et al, Acta Otolaryng. 70, 26-28 (1970).

Series [2] is described as follows: Relative bio-availability study: nasal administration/intra-muscular injection of salmon calcitonin, serum level by radio-immuno-assay. The series is classed as in vivo, human (healthy volunteers). The method, then:
The study is conducted with 12 healthy volunteers, 6 male and 6 female, with a body weight of from 50 to 85 kg. Each subject receives 4 administrations of salmon calcitonin, one intra-muscularly and 3 nasally. Administration is effected at the following dosages:
Nasal administration is effected using composition in accordance with example 1 and a spray-applicator delivering 55 MRC units per individual spray dosage. For the purposes of administration the subject is laid on the back with the head tilted backwards for 5 minutes. The nostrils are cleaned by blowing of the nose immediately prior to administration.
Intra-muscular administration is effected by injection of a single 1 ml dose of a composition similar to that of example 1, but omitting benzalkonium chloride and containing 50 MRC units into the glutaeus medius muscle.
Each subject receives the 4 administrations in randomized sequence, and at least 3 days are allowed between consecutive administrations. Each administration is effected in the morning after a light breakfast from which milk, butter and cheese is excluded. 100 ml water or orange juice is taken hourly following treatment to maintain urinary output. Further food is allowed not earlier than 4 hours after treatment.
Blood samples are taken immediately prior to administration (control), and at intervals of 5, 15, 30, 60, 90, 120, 180, 240, 360 and 480 minutes following administration. For the control a 20 ml sample is taken. All subsequent samples are 2 ml samples.
The concentration of salmon calcitonin in each serum sample is measured by radio-immuno-assay. Blood-pressure is controlled during the course of the trial and urine-samples tested for possible adverse reaction. Occurrence of side-effects, e.g. symptoms of nausea, is noted.
The AUC ("area under curve") for salmon calcitonin plasma concentration is calculated statistically, once employing all value, including those below the 26 pg/ml detectability limit, once with values below the detectability limit read as zero. Maximal plasma concentration and time at which this is reached are also determined. […]

SMILES strings stand for the structures.

Turning to `CC(C)(O)C(Cl)(Cl)Cl` [chlorbutanol], in series [1], the “inhibition of the ciliary beating frequency of rat trachea” value is on record as “more than 50%”.
With `CC(C)C[C@H](NC(=O)[C@H](CCCCN)NC(=O)CNC(=O)[C@H](CC(C)C)NC(=O)[C@@H](NC(=O)[C@@H]1CSSC[C@H](N)C(=O)N[C@@H](CO)C(=O)N[C@@H](CC(N)=O)C(=O)N[C@@H](CC(C)C)C(=O)N[C@@H](CO)C(=O)N[C@@H]([C@@H](C)O)C(=O)N1)C(C)C)C(=O)N[C@@H](CO)C(=O)N[C@@H](CCC(N)=O)C(=O)N[C@@H](CCC(=O)O)C(=O)N[C@@H](CC(C)C)C(=O)N[C@@H](Cc1c[nH]cn1)C(=O)N[C@@H](CCCCN)C(=O)N[C@@H](CC(C)C)C(=O)N[C@@H](CCC(N)=O)C(=O)N[C@H](C(=O)N[C@@H](Cc1ccc(O)cc1)C(=O)N1CCC[C@H]1C(=O)N[C@@H](CCCNC(=N)N)C(=O)N[C@H](C(=O)N[C@@H](CC(N)=O)C(=O)N[C@H](C(=O)NCC(=O)N[C@@H](CO)C(=O)NCC(=O)N[C@H](C(=O)N1CCC[C@H]1C(N)=O)[C@@H](C)O)[C@@H](C)O)[C@@H](C)O)[C@@H](C)O` [salmon calcitonin], the “AUC of serum concentration compared with 50 MRC units i.m.” value in series [2] (110 MRC units intra-nasally) and in series [2] (220 MRC units intra-nasally) was “comparable” each time. For the same compound, the adverse side-effects result in series [2] (nasal administrations, up to the highest dosage of 220 MRC units) was “No adverse side-effects were recorded”.
